For the test, the target named is Gag-Pol polyprotein (Human immunodeficiency virus type 1 group M subtype B (isolate HXB2), UniProt P04585). The experiment in a line: concentration-response of HIV-1 RNase H blockers – biochemical, probe assessment, dose response (AID 652). The settings on record: pH 8; 23 °C.
With `O=C(CSc1nc2ccccc2c2nc3ccccc3n12)NCc1ccco1` [2-(6-benzimidazolo[1,2-c]quinazolinylthio)-N-(2-furanylmethyl)acetamide], 8.73 µM corresponded to half-maximal inhibition (IC50). This counts as single-digit micromolar.
The molecule `CCOC(=O)C(C(C)=O)c1c(Br)c(O)c(O)c2c(C(=O)c3ccc(C)cc3)coc12` (stereo not drawn) [2-(6-bromo-4,5-dihydroxy-3-p-toluoyl-benzofuran-7-yl)-3-keto-butyric acid ethyl ester] came in with an IC50 of 0.421 µM.
With `CC1CCc2c(sc(NC(=O)c3ccc(Cn4cc(Br)cn4)o3)c2C(N)=O)C1` (stereo not drawn) [2-({5-[(4-bromo-1H-pyrazol-1-yl)methyl]-2-furoyl}amino)-6-methyl-4,5,6,7-tetrahydro-1-benzothiophene-3-carboxamide], the half-maximal inhibitory concentration (IC50) is 3.19 µM. This IC50 is about 7.6-fold higher than that of the molecule before.
`Nc1sc2c(c1C(=O)NC1CCS(=O)(=O)C1)CCC2` (stereo not drawn) [2-Amino-5,6-dihydro-4H-cyclopenta[b]thiophene-3-carboxylic acid (1,1-dioxo-tetrahydro-1lambda*6*-thiophen-3-yl)-amide] displayed an IC50 of 26.8 µM.
Take `O=c1c2ccccc2[se]n1-c1ccccc1` [2-Phenyl-benzo[d]isoselenazol-3-one]: the half-inhibitory concentration (IC50) is above 50 µM.
Molecule `Cc1cccc(C)c1NC(=O)CSCC(=O)c1ccc(O)c(O)c1` [2-[2-(3,4-dihydroxyphenyl)-2-oxoethyl]sulfanyl-N-(2,6-dimethylphenyl)acetamide] yielded an IC50 of 3.8 µM.
Molecule `Cc1ccc2c(SCC(=O)NCc3ccco3)nc(-c3ccc(F)cc3)nc2c1` [2-[2-(4-Fluoro-phenyl)-7-methyl-quinazolin-4-ylsulfanyl]-N-furan-2-ylmethyl-acetamide] returned an IC50 of 3.34 µM.
In turn, `NC(=O)c1cc(-c2ccccc2)sc1NC(=O)Cc1ccc(S(=O)(=O)N2CCOCC2)s1` [2-[2-(5-morpholin-4-ylsulfonylthiophen-2-yl)ethanoylamino]-5-phenyl-thiophene-3-carboxamide] yielded a 50% inhibitory concentration (IC50) of 7.35 µM.
Regarding `Cc1cc(C)c2c(=O)n(CC(=O)N3CCC(N4CCCCC4)CC3)sc2n1` [2-[2-keto-2-(4-piperidinopiperidino)ethyl]-4,6-dimethyl-isothiazolo[5,4-b]pyridin-3-one], the half-maximal inhibitory concentration (IC50) was 38.4 µM.
The value for `Cc1cccc(N2CCN(C(=O)Cn3sc4nc(C)cc(C)c4c3=O)CC2C)c1` (stereo not drawn) [2-[2-keto-2-[3-methyl-4-(m-tolyl)piperazino]ethyl]-4,6-dimethyl-isothiazolo[5,4-b]pyridin-3-one] was 4.28 µM.
Molecule `Cc1cc(C)c(NC(=O)Cn2c(=O)n(Cc3ccco3)c(=O)c3ccccc32)c(C)c1` [2-[3-(2-furanylmethyl)-2,4-dioxo-1-quinazolinyl]-N-(2,4,6-trimethylphenyl)acetamide] yielded a 50% inhibitory concentration (IC50) of 47.8 µM.
The molecule `CN(c1ccccc1)c1ccc(C=c2s/c(=C(/C#N)C(=O)C(C)(C)C)n(Cc3ccco3)c2=O)cc1` [2-[3-(furan-2-ylmethyl)-5-[[4-(N-methylanilino)phenyl]methylidene]-4-oxo-1,3-thiazolidin-2-ylidene]-4,4-dimethyl-3-oxopentanenitrile] registered a concentration for half-maximal inhibition (IC50) of 2.01 µM.
`N#Cc1nc(-c2ccc(OCc3ccc(Cl)cc3)cc2)oc1NCc1cccnc1` [2-[4-(4-chlorobenzyl)oxyphenyl]-5-(3-pyridylmethylamino)oxazole-4-carbonitrile] gave a half-inhibitory concentration (IC50) of 12.9 µM.
The value for `CCOC(=O)N1CCc2c(sc3c2C(=O)NC(c2ccc(-c4ccc(Cl)cc4)o2)N3)C1` (stereo not drawn) [2-[5-(4-chlorophenyl)-2-furanyl]-4-oxo-1,2,3,5,6,8-hexahydropyrido[2,3]thieno[2,4-d]pyrimidine-7-carboxylic acid ethyl ester] was 5.27 µM.
Molecule `Cc1cc(NC(=O)CSc2ccc(-c3nc4cc(C)c(C)cc4[nH]3)cn2)no1` [2-[5-(5,6-Dimethyl-1H-benzoimidazol-2-yl)-pyridin-2-ylsulfanyl]-N-(5-methyl-isoxazol-3-yl)-acetamide] showed a half-maximal inhibitory concentration (IC50) of 16.7 µM.
Molecule `N#Cc1c(N)nc(SCC(=O)NC2CCCCC2)c(C#N)c1-c1ccc(Cl)cc1` [2-[6-amino-4-(4-chlorophenyl)-3,5-dicyanopyridin-2-yl]sulfanyl-N-cyclohexylacetamide] showed an IC50 of 4.42 µM.
The molecule `O=c1c(=Cc2cccn2-c2ccccc2)sc2nc3ccccc3n12` [2-[(1-phenyl-2-pyrrolyl)methylidene]-1-thiazolo[3,2-a]benzimidazolone] gave an IC50 of 2.83 µM. Against the preceding molecule, the IC50 is about 1.6-fold lower.
`Cc1noc(C)c1CSc1nc2cc(S(=O)(=O)N3CCOCC3)ccc2o1` [2-[(3,5-dimethyl-1,2-oxazol-4-yl)methylsulfanyl]-5-morpholin-4-ylsulfonyl-1,3-benzoxazole] returned an IC50 of 2.3 µM.
Turning to `COC(=O)c1ccccc1NC(=O)c1sc(=S)n(C)c1N` [2-[(4-amino-3-methyl-2-thioxo-4-thiazoline-5-carbonyl)amino]benzoic acid methyl ester], half-maximal inhibition (IC50) was put at 4.43 µM. Compared with the last molecule, the IC50 is about 1.9-fold higher.
In the case of `Cc1ccc(/C=C/C2=Cc3c(sc(NC(=O)CSc4nnc(N)[nH]4)c3C#N)C(C)(C)C2)o1` [2-[(5-azanyl-1H-1,2,4-triazol-3-yl)sulfanyl]-N-[3-cyano-7,7-dimethyl-5-[(E)-2-(5-methylfuran-2-yl)ethenyl]-6H-1-benzothiophen-2-yl]ethanamide] it was 0.9 µM.
With `CCOC(=O)c1c(NC(=O)c2cc(C3CC3)on2)sc2c1CCCC2` [2-[(5-cyclopropylisoxazole-3-carbonyl)amino]-4,5,6,7-tetrahydrobenzothiophene-3-carboxylic acid ethyl ester], the 50% inhibitory concentration (IC50) was determined as 1.7 µM.
`Cc1cc(NC(=O)CSc2nc3cc4c(cc3c(=O)n2CCc2ccccc2)OCO4)no1` [2-[(8-keto-7-phenethyl-[1,3]dioxolo[4,5-g]quinazolin-6-yl)thio]-N-(5-methylisoxazol-3-yl)acetamide] yielded an IC50 of 4.79 µM.
On to `COC(=O)c1ccc2c(=O)n(Cc3ccco3)c(SCC(=O)Nc3ccccc3Cl)nc2c1` [2-[[2-(2-chloroanilino)-2-keto-ethyl]thio]-3-(2-furfuryl)-4-keto-quinazoline-7-carboxylic acid methyl ester], for which the IC50 was 4.65 µM.
For `COC(=O)c1ccccc1NC(=O)c1ccc2c(c1)C(=O)N(Cc1ccco1)C2=O` [2-[[2-(2-furfuryl)-1,3-diketo-isoindoline-5-carbonyl]amino]benzoic acid methyl ester], the midpoint of inhibition, the IC50, lay at 7.36 µM.
Take `COC(=O)c1ccc2c(=O)n(Cc3ccco3)c(SCC(=O)Nc3ccc(C)c(Cl)c3)nc2c1` [2-[[2-(3-chloro-4-methyl-anilino)-2-keto-ethyl]thio]-3-(2-furfuryl)-4-keto-quinazoline-7-carboxylic acid methyl ester]: inhibition was half-maximal at 2.79 µM (IC50).
In turn, `CCc1ccc(NC(=O)CSc2nc3cc(C(=O)OC)ccc3c(=O)n2Cc2ccco2)cc1` [2-[[2-(4-ethylanilino)-2-keto-ethyl]thio]-3-(2-furfuryl)-4-keto-quinazoline-7-carboxylic acid methyl ester] had an IC50 of 2.32 µM.
The molecule `Cc1cccc(-c2nsc(SCC(=O)Nc3nccs3)n2)c1` [2-[[3-(3-methylphenyl)-1,2,4-thiadiazol-5-yl]sulfanyl]-N-(1,3-thiazol-2-yl)acetamide] gave an IC50 of 3.81 µM.
Take `CCOC(=O)CSc1nc2cc(C(=O)NCc3ccco3)ccc2c(=O)n1-c1ccc(F)cc1` [2-[[3-(4-fluorophenyl)-7-(2-furfurylcarbamoyl)-4-keto-quinazolin-2-yl]thio]acetic acid ethyl ester]: the half-inhibitory concentration (IC50) was 13.1 µM.

The values are drawn from BindingDB's records for doi:10.7270/Q2H70D5W (University of Pittsburgh, 2007).
